Here are results for three compounds from patent US7858663B1, “Physical and chemical properties of thyroid hormone organic acid addition salts” (Pisgah Laboratories, Inc., priority 2007, dated 2010).

What all share (type): physicochemical
One data set is described as follows: Hygroscopicity. The conditions noted are these: compared with sodium or alkali metal salts of the thyroid hormones.
A short description of another data set: Water solubility.
Data set [1] in a line: Real-time storage stability under ambient laboratory conditions, HPLC comparison with freshly prepared material. Here is the method:
(§1) Chromatographic analyses were conducted on a Waters Breeze system equipped with a Waters 1525 Binary HPLC pump, 717plus Autosampler, 2487 Dual I Absorbance Detector and column heater employing a Zorbax Extend-C-18 Column (4.6×250 mm; 5 micron, 80 A). Separation occurred using a linear gradient elution according to the following table wherein eluant A consisted of 0.1% TFA in water and eluant B consisted of 0.1% TFA in acetonitrile.
(§2) Injection samples were prepared in water/1N NaOH/acetonitrile diluent (59:1:40) with analyte peaks detected at 230 nm. Analyte peaks associated with the pamoate salts were assayed against standard solutions prepared from liothyronine and levothryroxine.
The HPLC methodology was applied to freshly prepared samples of T3-pamoate and T4 pamoate and the resulting chromatograms compared with chromatograms of the materials after a four-year real-time storage under ambient laboratory conditions. Further, the pamoate salts were evaluated under forced degradation conditions to evaluate the effects of heat and moisture on the salts' chemical and thermal stability. Blank injections of the sample diluent were obtained at each time interval to determine if minor response differences observed were attributable to the diluent and the chromatographic system (eluant) or to real impurities within either liothyronine pamoate or levothyroxine pamoate. […]

Data set [2] is described as follows: Forced degradation as suspension in USP water at about 60° C., HPLC. As to the method:
as §1, §2
The HPLC methodology was applied to freshly prepared samples of T3-pamoate and T4 pamoate and the resulting chromatograms compared with chromatograms of the materials after a four-year real-time storage under ambient laboratory conditions. Further, the pamoate salts were evaluated under forced degradation conditions to evaluate the effects of heat and moisture on the salts' chemical and thermal stability. Blank injections of the sample diluent were obtained at each time interval to determine if minor response differences observed were attributable to the diluent and the chromatographic system (eluant) or to real impurities within either liothyronine pamoate or levothyroxine pamoate.
To accelerate the potential degradation of levothyroxine pamoate and liothyronine pamoate, samples of each were individually placed in at least an 100 fold excess by weight USP water to form a suspension. The mixture was not degassed and heating was initiated to about 60° C. Multiple samples at each time point were obtained and analyzed from the mixture to assure a representative sample was obtained. FIG. 16 is an HPLC chromatogram of levothyroxine pamoate after subjection to this forced degradation condition for about 98 hours and is indicative of the unexpected stability associated with the organic acid addition salt. […]

Turning to `N[C@@H](Cc1cc(I)c(Oc2cc(I)c(O)c(I)c2)c(I)c1)C(=O)O` [levothyroxine sodium, reference compound], the Hygroscopicity entry in the data set “Hygroscopicity” was “sufficient hygroscopic characteristics”. The Water solubility entry in the data set “Water solubility” is recorded as “water-soluble”.
For levothyroxine pamoate, in the data set “Water solubility”, the Water solubility result is on record as “insoluble”. Further, the “HPLC chromatogram after extended storage compared with freshly prepared material” value in data set [1] (about four years, ambient laboratory conditions 18-25° C., amber glass jars, detection 230 nm) is listed as “essentially identical”. The “HPLC chromatogram after forced degradation compared with freshly prepared material” value in data set [2] (suspension in at least 100 fold excess USP water, not degassed, about 60° C., about 98 hours) is reported as “essentially identical”.
Regarding `N[C@@H](Cc1cc(I)c(Oc2ccc(O)c(I)c2)c(I)c1)C(=O)O.N[C@@H](Cc1cc(I)c(Oc2ccc(O)c(I)c2)c(I)c1)C(=O)O.O=C(O)c1cc2ccccc2c(Cc2c(O)c(C(=O)O)cc3ccccc23)c1O` [liothyronine pamoate], the “Amount of degradation impurity at retention time 25-26 minutes” value was “only a minor amount of the impurity” in data set [1] (extended storage, about four years at ambient laboratory conditions) and “significant” in data set [2] (forced degradation, aqueous environment at 60° C. for 148 hours). Moreover, the “Decomposition under forced degradation (late eluting peak, retention time about 25-26 minutes)” value in data set [2] (aqueous environment at 60° C. for 148 hours) was “exhibited some decomposition”.
